Results taken from patent US6737383B1, “Herbicidal oxadiazolidines” (priority 1999, dated 2004).

Columns and labels:
bedstraw = experiment: Test B pre/postemergence bedstraw; format: in vivo, Galium aparine
Summary of the method: (§1)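 Response is a visual 0-to-10 score relative to untreated plants, where 0 means no effect and 10 means complete control, taken twelve to sixteen days after application. Treatments went onto soil at planting and onto foliage of 1- to 4-leaf plants, using a surfactant-containing non-phytotoxic solvent.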

blackgrass = experiment: Test B pre/postemergence blackgrass; format: in vivo, Alopecurus myosuroides
Summary of the method: as §1

surinam grass = experiment: Test B pre/postemergence surinam grass; format: in vivo, Brachiaria decumbens
Summary of the method: as §1

corn = experiment: Test B pre/postemergence corn; format: in vivo, Zea mays
Summary of the method: as §1

crabgrass = experiment: Test B pre/postemergence crabgrass; format: in vivo, Digitaria sanguinalis
Summary of the method: as §1

giant foxtail = experiment: Test B pre/postemergence giant foxtail; format: in vivo, Setaria faberii
Summary of the method: as §1

morningglory = experiment: Test B pre/postemergence morningglory; format: in vivo, Ipomoea hederacea
Summary of the method: as §1

pigweed = experiment: Test B pre/postemergence pigweed; format: in vivo, Amaranthus retroflexus
Summary of the method: as §1

rape = experiment: Test B pre/postemergence rape; format: in vivo, Brassica napus
Summary of the method: as §1

sugar beet = experiment: Test B pre/postemergence sugar beet; format: in vivo, Beta vulgaris
Summary of the method: as §1

wheat = experiment: Test B pre/postemergence wheat; format: in vivo, Triticum aestivum
Summary of the method: as §1

wild oat = experiment: Test B pre/postemergence wild oat; format: in vivo, Avena fatua
Summary of the method: as §1

purple nutsedge = experiment: Test B pre/postemergence purple nutsedge; format: in vivo, Cyperus rotundus
Summary of the method: as §1

rice = experiment: Test B flood test rice; format: in vivo, Oryza sativa
Summary of the method: (§2)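 Plants were grown to the 2-leaf stage before treatment with test chemical, then held in a greenhouse for twelve to sixteen days. Injury was visually rated against untreated controls on a 0–10 scale, where 0 is no effect and 10 is complete control.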

smallflower flatsedge = experiment: Test B flood test smallflower flatsedge; format: in vivo, Cyperus difformis
Summary of the method: as §2

bamyardgrass = experiment: Test B flood test barnyardgrass; format: in vivo, Echinochloa crus-galli
Summary of the method: as §2

[1] = Preemergence, Rate 62 g/ha, scale of 0 to 10 where 0 is no effect and 10 is complete control
[2] = Preemergence, Rate 250 g/ha, scale of 0 to 10 where 0 is no effect and 10 is complete control
[3] = Preemergence, Rate 500 g/ha, scale of 0 to 10 where 0 is no effect and 10 is complete control
[4] = Rate 62 g/ha, Postemergence, scale 0 to 10 (0 no effect, 10 complete control)
[5] = Rate 125 g/ha, Postemergence, scale of 0 to 10 where 0 is no effect and 10 is complete control
[6] = Rate 250 g/ha, Postemergence, scale of 0 to 10 where 0 is no effect and 10 is complete control
[7] = Rate 500 g/ha, Postemergence, scale 0 to 10, 0 no effect, 10 complete control
[8] = Pre-emergence, Rate 1000 g/ha, scale 0 to 10 (0 no effect, 10 complete control)
[9] = Rate 62 g/ha, headed Pre-emergence (flood test species), scale 0 to 10 (0 no effect, 10 complete control)
[10] = Rate 125 g/ha, Pre-emergence, flood test species, scale 0 to 10 where 0 is no effect and 10 is complete control
[11] = Rate 250 g/ha, Pre-emergence, flood-test species, scale 0 to 10, 0 is no effect, 10 is complete control
[12] = Rate 500 g/ha, Pre-emergence, flood test species, scale 0 to 10 (0 no effect, 10 complete control)

CC(C)N(C(=O)n1oc(=O)n(C2CCOCC2)c1=O)c1ccc(F)cc1 [Compound 310]
Bedstraw plant response rating (bedstraw; [1]): 2
Bedstraw plant response rating (0 to 10 scale) (bedstraw; Preemergence, Rate 125 g/ha): 3
Bedstraw plant response rating (bedstraw; [2]): 5
Bedstraw plant response rating (bedstraw; [3]): 10
Bedstraw plant response rating (bedstraw; [4]): 4
Bedstraw plant response rating (bedstraw; [5]): 4
Plant response rating, Bedstraw (bedstraw; [6]): 7
Bedstraw plant response rating (bedstraw; [7]): 5
Blackgrass plant response rating (blackgrass; [1]): 10
Blackgrass plant response rating (0 to 10 scale) (blackgrass; Preemergence, Rate 125 g/ha): 10
Blackgrass plant response rating (blackgrass; [2]): 10
Blackgrass plant response rating (blackgrass; [3]): 10
Blackgrass plant response rating (blackgrass; [4]): 5
Blackgrass plant response rating (blackgrass; [5]): 7
Plant response rating, Blackgrass (blackgrass; [6]): 9
Blackgrass plant response rating (blackgrass; [7]): 9
B. signalgrass plant response rating (surinam grass; [1]): 4
B. signalgrass plant response rating (0 to 10 scale, 0 is no effect, 10 is complete control) (surinam grass; Preemergence, Rate 125 g/ha): 4
B. signalgrass plant response rating (surinam grass; [2]): 7
B. signalgrass plant response rating (surinam grass; [3]): 8
B. signalgrass plant response rating (surinam grass; [4]): 2
B. signalgrass plant response rating (surinam grass; [5]): 3
Plant response rating, B. signalgrass (surinam grass; [6]): 7
B. signalgrass plant response rating (surinam grass; [7]): 7
Corn plant response rating (corn; [1]): 0
Corn plant response rating (0 to 10 scale) (corn; Preemergence, Rate 125 g/ha): 0
Corn plant response rating (corn; [2]): 0
Corn plant response rating (corn; [3]): 5
Corn plant response rating (corn; [4]): 0
Corn plant response rating (corn; [5]): 0
Plant response rating, Corn (corn; [6]): 0
Corn plant response rating (corn; [7]): 0
Crabgrass plant response rating (crabgrass; [1]): 5
Crabgrass plant response rating (0 to 10 scale) (crabgrass; Preemergence, Rate 125 g/ha): 5
Crabgrass plant response rating (crabgrass; [2]): 7
Crabgrass plant response rating (crabgrass; [3]): 7
Crabgrass plant response rating (crabgrass; [4]): 8
Crabgrass plant response rating (crabgrass; [5]): 9
Plant response rating, Crabgrass (crabgrass; [6]): 9
Giant foxtail plant response rating (giant foxtail; [1]): 10
Giant foxtail plant response rating (0 to 10 scale) (giant foxtail; Preemergence, Rate 125 g/ha): 10
Giant foxtail plant response rating (giant foxtail; [2]): 10
Giant foxtail plant response rating (giant foxtail; [3]): 10
Giant foxtail plant response rating (giant foxtail; [4]): 7
Giant foxtail plant response rating (giant foxtail; [5]): 7
Plant response rating, Giant foxtail (giant foxtail; [6]): 8
Morningglory plant response rating (morningglory; [1]): 2
Morningglory plant response rating (0 to 10 scale) (morningglory; Preemergence, Rate 125 g/ha): 6
Morningglory plant response rating (morningglory; [2]): 6
Morningglory plant response rating (morningglory; [3]): 8
Morningglory plant response rating (morningglory; [4]): 4
Morningglory plant response rating (morningglory; [5]): 5
Plant response rating, Morningglory (morningglory; [6]): 7
Redroot pigweed plant response rating (pigweed; [1]): 9
Redroot pigweed plant response rating (0 to 10 scale) (pigweed; Preemergence, Rate 125 g/ha): 10
Redroot pigweed plant response rating (pigweed; [2]): 10
Redroot pigweed plant response rating (pigweed; [3]): 10
Redroot pigweed plant response rating (pigweed; [4]): 0
Redroot pigweed plant response rating (pigweed; [5]): 0
Plant response rating, Redroot pigweed (pigweed; [6]): 3
Rape plant response rating (rape; [1]): 5
Rape plant response rating (0 to 10 scale) (rape; Preemergence, Rate 125 g/ha): 6
Rape plant response rating (rape; [2]): 10
Rape plant response rating (rape; [3]): 10
Rape plant response rating (rape; [4]): 0
Rape plant response rating (rape; [5]): 0
Plant response rating, Rape (rape; [6]): 0
Sugarbeets plant response rating (sugar beet; [1]): 5
Sugarbeets plant response rating (0 to 10 scale) (sugar beet; Preemergence, Rate 125 g/ha): 7
Sugarbeets plant response rating (sugar beet; [2]): 10
Sugarbeets plant response rating (sugar beet; [3]): 10
Sugarbeets plant response rating (sugar beet; [4]): 0
Sugarbeets plant response rating (sugar beet; [5]): 0
Plant response rating, Sugarbeets (sugar beet; [6]): 2
Wheat plant response rating (wheat; [1]): 2
Wheat plant response rating (0 to 10 scale) (wheat; Preemergence, Rate 125 g/ha): 2
Wheat plant response rating (wheat; [2]): 5
Wheat plant response rating (wheat; [3]): 7
Wheat plant response rating (wheat; [4]): 4
Wheat plant response rating (wheat; [5]): 4
Plant response rating, Wheat (wheat; [6]): 6
Wild oats plant response rating (wild oat; [1]): 8
Wild oats plant response rating (0 to 10 scale) (wild oat; Preemergence, Rate 125 g/ha): 9
Wild oats plant response rating (wild oat; [2]): 9
Wild oats plant response rating (wild oat; [3]): 9
Wild oats plant response rating (wild oat; [4]): 3
Wild oats plant response rating (wild oat; [5]): 3
Plant response rating, Wild oats (wild oat; [6]): 3
Nutsedge plant response rating (purple nutsedge; [1]): 0
Nutsedge plant response rating (0 to 10 scale) (purple nutsedge; Preemergence, Rate 125 g/ha): 0
Nutsedge plant response rating (purple nutsedge; [2]): 10
Nutsedge plant response rating (purple nutsedge; [3]): 10
Nutsedge plant response rating (purple nutsedge; [4]): 2
Nutsedge plant response rating (purple nutsedge; [5]): 3
Plant response rating, Nutsedge (purple nutsedge; [6]): 6
Rice plant response rating (rice; [8]): 0
Rice plant response rating (rice; [9]): 0
Rice plant response rating (rice; [10]): 0
Rice plant response rating (rice; [11]): 0
Rice plant response rating (rice; [12]): 0
S. Flatsedge plant response rating (smallflower flatsedge; [8]): 0
S. Flatsedge plant response rating (smallflower flatsedge; [9]): 0
S. Flatsedge plant response rating (smallflower flatsedge; [10]): 0
S. Flatsedge plant response rating (smallflower flatsedge; [11]): 0
S. Flatsedge plant response rating (smallflower flatsedge; [12]): 3
Barnyardgrass plant response rating (bamyardgrass; [8]): 6
Barnyardgrass plant response rating (bamyardgrass; [9]): 0
Barnyardgrass plant response rating (bamyardgrass; [10]): 0
Barnyardgrass plant response rating (bamyardgrass; [11]): 4
Barnyardgrass plant response rating (bamyardgrass; [12]): 7
